Measurements published in US11351178B2, “Selective HDAC6 inhibitors” (ITALFARMACO S.P.A., priority 2017, dated 2022).

Legend:
[1] = tested on: α-tubulin acetylation in 697 cell line; assay: In vitro α-tubulin acetylation in 697 cell line; format: cell-based
Experimental: (§1) The in vitro α-tubulin and H3 histone acetylation determination was evaluated on B 697 […] cell line.
(§2) The test molecules were diluted from 20 mM stock solution in DMSO with RPMI 10% FCS+0.01% DMSO medium at 20× concentration compared to the final concentration, added to the cells (15×10^6 cells in a total volume of 30 ml in RPMI medium 10% FCS+0.01% DMSO) to obtain the final concentrations of 1000, 333, 111 and 37 nM and incubated at 37° C., 5% CO2 for 16 hours.
At the end of the incubation period, 5×10^6 cells were taken from each sample, centrifuged for 5 minutes at 1100 rpm and washed in 0.9% NaCl at 4° C. The resulting pellet was lysed by treating at 4° C. for 30 minutes with 150 μl of Complete Lysis-M (Roche, cat-04719956051) containing protease inhibitors and phosphatase (Complete Easy Pack proteinase inhibitor cocktail tablets cat: 04693116001, Phostop easypack phosphatase inhibitor cocktails, cat: 01906837001—Roche), then centrifuged 10 minutes at 14,000 rpm (20817×g). 0.150 μg of supernatant (total protein extract) were diluted in 100 μl of 1×PBS and immobilized in Maxisorp F96 NUN-IMMUNO Plate (Nunc cat #5442404) at room temperature overnight. Plates were washed twice with Wash Buffer (PBS1X+0.005% tween 20) and saturated for 1 hour at room temperature with 300 μL of 1×PBS containing 10 FCS. After washing with buffer (1×PBS containing 0.005% tween), the plates were incubated for two hours at room temperature in the presence of anti-acetylated-α-tubulin antibody (Monoclonal Anti-acetylated-tubulin clone 6-11B-1, mouse ascites fluid, cat #T6793 Sigma, 100 μl diluted 1:1000 in 1×PBS containing 10% FCS) or with total anti-α-tubulin antibody (Monoclonal Anti alpha-tubulin produced in mouse, cat #T6074 Sigma). After washing, 100 μl per well of TMB substrate kit was added for 10 minutes at room temperature in the dark. The reaction was stopped by adding 50 μl of 2N H2SO4. The plates were read at Multiskan Spectrum spectrophotometer at a wavelength of 450 nm.
The degree of acetylation was calculated by dividing the absorbance obtained for acetylated α-tubulin by the absorbance of total α-tubulin.
(§3) Test results of tubulin and H3 histone acetylation, expressed as fold increase of ratio of acetylated α-tubulin/total α-tubulin and H3Ac/H3Tot, respectively, of each sample relative to the control sample (untreated) are summarized in Tables 6 and 6′.

[2] = tested on: H3 histone acetylation in 697 cell line; assay: In vitro H3 histone acetylation in 697 cell line; format: cell-based
Experimental: as §1, §2
The remaining cells (10×10^6) were treated by acid extraction of histones (Kazuhiro et al., PNAS (2002), 99 (13) 8921-8926). Cells were centrifuged 5 min at 1100 rpm at 4° C. and washed once in 0.9% NaCl. The resulting pellet was lysed with […] (10 mM Tris.HCl, pH 6.5/50 mM sodium bisulphite, 1% Triton X-100/10 mM MgCl2/8.6% saccharose containing the protease inhibitor mixture (Roche)) for 20 min at 4° C. The resulting nucleus pellet was repeatedly washed in buffer until supernatant clarification (centrifuged at 7,500×g, 5 minutes after each wash) and finally washed in nucleus buffer (10 mM Tris.HCl/13 mm EDTA, pH 7, 4) and resuspended in 250 μl of 0.2 M HCl/H2SO4. Histone proteins were extracted in an acidic environment by incubating overnight at 4° C. under gentle shaking. After centrifugation at 14,000 rpm at 4° C. for 10 minutes, 1250 μl of cold acetone was added to the supernatant and incubated overnight at −20° C., resulting in the precipitation of histone proteins. The pellet obtained after centrifugation for 10 minutes at 14000 rpm and 4° C. was washed with cold acetone, evaporated to dryness and resuspended in 50 μl distilled water. The protein content determination of both total and histone extracts was carried out by a colorimetric assay using a BCA Protein Assay Kit (Pierce cat: 23227).
H3 histone acetylation and total H3 amount were quantified by commercial ELISA assays PathScan acetylated histone H3 Sandwich Elisa kit, cat #7232C and PathScan total histone H3 Sandwich Elisa Kit, cat #7253C Cell Signaling) according to supplier reported method and by detecting absorbance at 450 nm wavelength using Multiskan Spectrum. ELISA tests were performed by analysing 0.250 μg and 0.500 μg of histone extract of each sample. The degree of acetylation was calculated by dividing H3 histone absorbance by histone total absorbance.
as §3

[3] = format: in vivo; conditions: mouse, Day 12, 100 mg/Kg ip
Experimental: Following chronic intraperitoneal administration in C57BL/6 mice, compounds MTD was estimated by clinical (body weight and behaviour) and blood (white blood cells and platelets) parameters evaluation. The compounds were administered after dissolution in a H2O/PEG400 mixture in ratio 1:1 w/w containing 5% DMSO (for compound 17, 20% DMSO was used).
All animals were weighed the day before the treatment (day 0) and the average body weight was determined.
Animals (8 animals per group) were treated once a day starting from Day 1 during 5 consecutive days per week with: • a) the compounds at doses of 10, 30, 50 mg/kg ip, • b) Givinostat at 100 mg/kg (internal control) and • c) the vehicle solutions used for solubilizing the substances.
The volume of the solutions administered was 10 mL/Kg. The treatment was repeated for 2 weeks, for a total of 10 treatments/group.
On a daily basis any clinical sign (skin appearance, mobility and animal reactivity, respiration, etc.) indicating a possible toxicity of the compounds has been reported. The animal weight was evaluated on days 2, 4, 9 and 11.
On Day 1, 3, 5, 8, 10 and 12, blood sample (about 50 μL) were taken from the tail of the animal to evaluate the effect of the substances on blood parameters. Withdrawals were performed on 4 animals per group on alternate days.
Samples were harvested in tubes containing EDTA, appropriately diluted in physiological solution and analysed with a cell counter.
At the end of the study (day 12) the animals were sacrificed 60 minutes after the last treatment. Gross necropsy evaluation was performed to detect any internal organ abnormalities. Table 8 summarizes the data obtained in MTD determination experiments for some of the compounds according to the invention. Givinostat is a HDAC pan inhibitor and was used as a reference. The tested molecules are well tolerated.

CCN(CC)Cc1ccc2cc(COC(=O)Nc3ccc(C(=O)NO)cc3)ccc2c1 [Givinostat, reference compound]
tubulin acetylation (in words) [1]: good acetylation of both tubulin and H3 histone | fold induction at 0.037 µM ([1]; Conc 37 nM, 16 hours, read-out: Tubulin acetylation (ratio of acetylated tubulin and total tubulin towards control)): 1 | fold induction at 0.111 µM ([1]; Conc 111 nM, 16 hours, read-out: Tubulin acetylation (ratio of acetylated tubulin and total tubulin towards control)): 4 | fold induction at 0.333 µM ([1]; Conc 333 nM, 16 hours, read-out: Tubulin acetylation (ratio of acetylated tubulin and total tubulin towards control)): 12 | fold induction at 1 µM ([1]; Conc 1000 nM, 16 hours, read-out: Tubulin acetylation (ratio of acetylated tubulin and total tubulin towards control)): 18 | H3 histone acetylation (in words) [2]: good acetylation of both tubulin and H3 histone | fold induction at 0.111 µM ([2]; 16 h, conc 111 nM, read-out: Acetylation of H3 histone (fold increase of acetylated H3/total H3 towards control)): 8 | fold induction at 0.333 µM ([2]; 16 h, conc 333 nM, read-out: Acetylation of H3 histone (fold increase of acetylated H3/total H3 towards control)): 17 | fold induction at 1 µM ([2]; 16 h, conc 1000 nM, read-out: Acetylation of H3 histone (fold increase of acetylated H3/total H3 towards control)): 23 | Body weight % vs control [3]: 0.9% | Platelet % vs control [3]: −7% | White blood cells % vs control [3]: −72%
